Results published in PubChem BioAssay AID1963427 (Molecular Pharmacology Branch, DTP, NCI, 2024).
Values belong to the compound of their own block, whether it stands above or below them.

Tested on: 317291-083-R-J1-PDC complex spheroid growth
Assay: Anticancer human tumor 317291-083-R-J1-PDC patient-derived soft tissue sarcoma cell line growth inhibition [Asc]
Conditions: for IC50: curve of first compound; for viability, T/C: stronger effect = lower value
Outline: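 Complex spheroids combining tumor cells with HUVEC endothelial cells and human MSCs, at 37 degrees C, 5% CO2; agents tested alone or combined, half-log dilutions from at or near clinical Cmax, or 10 microM if Cmax unknown.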

[1] = second compound 0.00316 µM, first compound 0.00316 µM
[2] = second compound 0.00316 µM, first compound 0.01 µM
[3] = second compound 0.00316 µM, first compound 0.0316 µM
[4] = second compound 0.00316 µM, first compound 0.1 µM
[5] = second compound 0.00316 µM, first compound 0.316 µM
[6] = second compound 0.00316 µM, first compound 1 µM
[7] = second compound 0.01 µM, first compound 0.00316 µM
[8] = second compound 0.01 µM, first compound 0.01 µM
[9] = second compound 0.01 µM, first compound 0.0316 µM
[10] = second compound 0.01 µM, first compound 0.1 µM
[11] = second compound 0.01 µM, first compound 0.316 µM
[12] = second compound 0.01 µM, first compound 1 µM
[13] = second compound 0.0316 µM, first compound 0.00316 µM
[14] = second compound 0.0316 µM, first compound 0.01 µM
[15] = second compound 0.0316 µM, first compound 0.0316 µM
[16] = second compound 0.0316 µM, first compound 0.1 µM
[17] = second compound 0.0316 µM, first compound 0.316 µM
[18] = second compound 0.0316 µM, first compound 1 µM
[19] = second compound 0.1 µM, first compound 0.00316 µM
[20] = second compound 0.1 µM, first compound 0.01 µM
[21] = second compound 0.1 µM, first compound 0.0316 µM
[22] = second compound 0.1 µM, first compound 0.1 µM
[23] = second compound 0.1 µM, first compound 0.316 µM
[24] = second compound 0.1 µM, first compound 1 µM
[25] = second compound 0.316 µM, first compound 0.00316 µM
[26] = second compound 0.316 µM, first compound 0.01 µM
[27] = second compound 0.316 µM, first compound 0.0316 µM
[28] = second compound 0.316 µM, first compound 0.1 µM
[29] = second compound 0.316 µM, first compound 0.316 µM
[30] = second compound 0.316 µM, first compound 1 µM
[31] = second compound 1 µM, first compound 0.00316 µM
[32] = second compound 1 µM, first compound 0.01 µM
[33] = second compound 1 µM, first compound 0.0316 µM
[34] = second compound 1 µM, first compound 0.1 µM
[35] = second compound 1 µM, first compound 0.316 µM
[36] = second compound 1 µM, first compound 1 µM
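Further: compound exposure lasted seven days after spheroids formed for three days.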
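Wherever viability, T/C is given: 100% = DMSO vehicle control wells.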

- IC50 (second compound 0.00316 µM): 0.345 µM
- IC50 (second compound 0.01 µM): 0.32 µM
- IC50 (second compound 0.0316 µM): 0.14 µM
- IC50 (second compound 0.1 µM): 0.071 µM
- IC50 (second compound 0.316 µM): 0.0181 µM
- IC50 (second compound 1 µM): < 0.00316 µM
Structure (SMILES): CCN1CCN(Cc2ccc(Nc3ncc(F)c(-c4cc(F)c5nc(C)n(C(C)C)c5c4)n3)nc2)CC1 + CNC(C)C(=O)NC1CN(S(=O)(=O)c2cccc(S(=O)(=O)N3CCC4CCC(C(=O)NC(c5ccccc5)c5ccccc5)N4C(=O)C(NC(=O)C(C)NC)C3)c2)CCC2CCC(C(=O)NC(c3ccccc3)c3ccccc3)N2C1=O
- viability, T/C [1]: 54.7%
- viability, T/C [2]: 58.7%
- viability, T/C [3]: 56.8%
- viability, T/C [4]: 65%
- viability, T/C [5]: 48.9%
- viability, T/C [6]: 28%
- viability, T/C [7]: 89.1%
- viability, T/C [8]: 90%
- viability, T/C [9]: 79.2%
- viability, T/C [10]: 76%
- viability, T/C [11]: 48.8%
- viability, T/C [12]: 31.6%
- viability, T/C [13]: 80.3%
- viability, T/C [14]: 79.6%
- viability, T/C [15]: 64.9%
- viability, T/C [16]: 58.4%
- viability, T/C [17]: 35.7%
- viability, T/C [18]: 40.9%
- viability, T/C [19]: 60.9%
- viability, T/C [20]: 50.2%
- viability, T/C [21]: 53.8%
- viability, T/C [22]: 45.6%
- viability, T/C [23]: 43.5%
- viability, T/C [24]: 22.2%
- viability, T/C [25]: 58.6%
- viability, T/C [26]: 49.4%
- viability, T/C [27]: 42.8%
- viability, T/C [28]: 48%
- viability, T/C [29]: 33.4%
- viability, T/C [30]: 22.7%
- viability, T/C [31]: 32.9%
- viability, T/C [32]: 36.6%
- viability, T/C [33]: 36.6%
- viability, T/C [34]: 31.4%
- viability, T/C [35]: 32.2%
- viability, T/C [36]: 19.5%

- IC50 (second compound 0.00316 µM): < 0.000316 µM
- IC50 (second compound 0.01 µM): < 0.000316 µM
- IC50 (second compound 0.0316 µM): 0.0218 µM
- IC50 (second compound 0.1 µM): 0.0172 µM
- IC50 (second compound 0.316 µM): 0.00101 µM
- IC50 (second compound 1 µM): < 0.000316 µM
Structure (SMILES): Cn1ncnc1[C@H]1c2n[nH]c(=O)c3cc(F)cc(c23)N[C@@H]1c1ccc(F)cc1 + CNC(C)C(=O)NC1CN(S(=O)(=O)c2cccc(S(=O)(=O)N3CCC4CCC(C(=O)NC(c5ccccc5)c5ccccc5)N4C(=O)C(NC(=O)C(C)NC)C3)c2)CCC2CCC(C(=O)NC(c3ccccc3)c3ccccc3)N2C1=O
- viability, T/C (second compound 0.00316 µM, first compound 0.000316 µM): 3.79%
- viability, T/C (second compound 0.00316 µM, first compound 0.001 µM): 4.39%
- viability, T/C [1]: 4.26%
- viability, T/C [2]: 4.44%
- viability, T/C [3]: 4.58%
- viability, T/C [4]: 4.39%
- viability, T/C (second compound 0.01 µM, first compound 0.000316 µM): 45.2%
- viability, T/C (second compound 0.01 µM, first compound 0.001 µM): 37.4%
- viability, T/C [7]: 46.9%
- viability, T/C [8]: 29.3%
- viability, T/C [9]: 28.5%
- viability, T/C [10]: 34.5%
- viability, T/C (second compound 0.0316 µM, first compound 0.000316 µM): 79%
- viability, T/C (second compound 0.0316 µM, first compound 0.001 µM): 86%
- viability, T/C [13]: 82.5%
- viability, T/C [14]: 57%
- viability, T/C [15]: 40.3%
- viability, T/C [16]: 52.7%
- viability, T/C (second compound 0.1 µM, first compound 0.000316 µM): 95.4%
- viability, T/C (second compound 0.1 µM, first compound 0.001 µM): 76.5%
- viability, T/C [19]: 60.8%
- viability, T/C [20]: 56.6%
- viability, T/C [21]: 39.3%
- viability, T/C [22]: 50.4%
- viability, T/C (second compound 0.316 µM, first compound 0.000316 µM): 58.8%
- viability, T/C (second compound 0.316 µM, first compound 0.001 µM): 55.7%
- viability, T/C [25]: 36.8%
- viability, T/C [26]: 41.6%
- viability, T/C [27]: 28.9%
- viability, T/C [28]: 35.9%
- viability, T/C (second compound 1 µM, first compound 0.000316 µM): 34%
- viability, T/C (second compound 1 µM, first compound 0.001 µM): 37.4%
- viability, T/C [31]: 28.1%
- viability, T/C [32]: 30.9%
- viability, T/C [33]: 29.2%
- viability, T/C [34]: 22.3%

- IC50 (second compound 0.00316 µM): < 0.0316 µM
- IC50 (second compound 0.01 µM): < 0.0316 µM
- IC50 (second compound 0.0316 µM): 3.59 µM
- IC50 (second compound 0.1 µM): 0.743 µM
- IC50 (second compound 0.316 µM): 0.0316 µM
- IC50 (second compound 1 µM): < 0.0316 µM
Structure (SMILES): O=C(c1cc(Cc2n[nH]c(=O)c3ccccc23)ccc1F)N1CCN(C(=O)C2CC2)CC1 + CNC(C)C(=O)NC1CN(S(=O)(=O)c2cccc(S(=O)(=O)N3CCC4CCC(C(=O)NC(c5ccccc5)c5ccccc5)N4C(=O)C(NC(=O)C(C)NC)C3)c2)CCC2CCC(C(=O)NC(c3ccccc3)c3ccccc3)N2C1=O
- viability, T/C [3]: 4.34%
- viability, T/C [4]: 4.85%
- viability, T/C [5]: 5.04%
- viability, T/C [6]: 5.11%
- viability, T/C (second compound 0.00316 µM, first compound 3.16 µM): 4.26%
- viability, T/C (second compound 0.00316 µM, first compound 10 µM): 4.12%
- viability, T/C [9]: 37%
- viability, T/C [10]: 43.8%
- viability, T/C [11]: 55.6%
- viability, T/C [12]: 33.9%
- viability, T/C (second compound 0.01 µM, first compound 3.16 µM): 16.4%
- viability, T/C (second compound 0.01 µM, first compound 10 µM): 16.1%
- viability, T/C [15]: 65.5%
- viability, T/C [16]: 67.9%
- viability, T/C [17]: 62%
- viability, T/C [18]: 58.1%
- viability, T/C (second compound 0.0316 µM, first compound 3.16 µM): 55.2%
- viability, T/C (second compound 0.0316 µM, first compound 10 µM): 23.9%
- viability, T/C [21]: 78.5%
- viability, T/C [22]: 71.3%
- viability, T/C [23]: 57.7%
- viability, T/C [24]: 54.7%
- viability, T/C (second compound 0.1 µM, first compound 3.16 µM): 23.4%
- viability, T/C (second compound 0.1 µM, first compound 10 µM): 34.9%
- viability, T/C [27]: 52%
- viability, T/C [28]: 44.4%
- viability, T/C [29]: 44.8%
- viability, T/C [30]: 50.8%
- viability, T/C (second compound 0.316 µM, first compound 3.16 µM): 17.4%
- viability, T/C (second compound 0.316 µM, first compound 10 µM): 21.4%
- viability, T/C [33]: 34.3%
- viability, T/C [34]: 47.7%
- viability, T/C [35]: 34.8%
- viability, T/C [36]: 27.9%
- viability, T/C (second compound 1 µM, first compound 3.16 µM): 13.2%
- viability, T/C (second compound 1 µM, first compound 10 µM): 13.8%

- IC50 (second compound 0.00316 µM): 0.203 µM
- IC50 (second compound 0.01 µM): 0.244 µM
- IC50 (second compound 0.0316 µM): 0.258 µM
- IC50 (second compound 0.1 µM): 0.0744 µM
- IC50 (second compound 0.316 µM): 0.0781 µM
- IC50 (second compound 1 µM): < 0.00316 µM
Structure (SMILES): O=C(c1ccc(F)c(F)c1Nc1ccc(I)cc1F)N1CC(O)([C@@H]2CCCCN2)C1 + CNC(C)C(=O)NC1CN(S(=O)(=O)c2cccc(S(=O)(=O)N3CCC4CCC(C(=O)NC(c5ccccc5)c5ccccc5)N4C(=O)C(NC(=O)C(C)NC)C3)c2)CCC2CCC(C(=O)NC(c3ccccc3)c3ccccc3)N2C1=O
- viability, T/C [1]: 75.5%
- viability, T/C [2]: 69.5%
- viability, T/C [3]: 63.3%
- viability, T/C [4]: 71.5%
- viability, T/C [5]: 37.5%
- viability, T/C [6]: 13.9%
- viability, T/C [7]: 100%
- viability, T/C [8]: 73.2%
- viability, T/C [9]: 75.2%
- viability, T/C [10]: 91.7%
- viability, T/C [11]: 39.8%
- viability, T/C [12]: 23.4%
- viability, T/C [13]: 92%
- viability, T/C [14]: 72%
- viability, T/C [15]: 73.6%
- viability, T/C [16]: 90%
- viability, T/C [17]: 43.1%
- viability, T/C [18]: 14.7%
- viability, T/C [19]: 72.3%
- viability, T/C [20]: 83.5%
- viability, T/C [21]: 56.3%
- viability, T/C [22]: 49.9%
- viability, T/C [23]: 19%
- viability, T/C [24]: 8.71%
- viability, T/C [25]: 60.1%
- viability, T/C [26]: 63.7%
- viability, T/C [27]: 47.8%
- viability, T/C [28]: 47.9%
- viability, T/C [29]: 38.6%
- viability, T/C [30]: 7.49%
- viability, T/C [31]: 37.1%
- viability, T/C [32]: 42.3%
- viability, T/C [33]: 37.9%
- viability, T/C [34]: 33.5%
- viability, T/C [35]: 14.8%
- viability, T/C [36]: 5.83%
